Reference: patent US9949992B2, “Bisphosphonate compositions and methods for treating and\or reducing cardiac dysfunction” (DUKE UNIVERSITY, priority 2011, dated 2018)
Values belong to the molecule of their own block, whether it stands above or below them.

Legend:
[1] = Hydroxyapatite (HAP) affinity by chromatographic profiling on HAP column; type: binding; conditions: phosphate gradient 1 mM to 1000 mM, pH 6.8
[2] = target: T1, human farnesyl pyrophosphate synthase (FPPS) (Homo sapiens, UniProt P14324); experiment: FPPS inhibition, in vitro, recombinant enzyme; type: biochemical; conditions: GPP and IPP 10 μM each, 37° C., read-out: FFPPS nM IC50
T1 construct: made in house
T1 sequence (P14324 67-419 limits assumed): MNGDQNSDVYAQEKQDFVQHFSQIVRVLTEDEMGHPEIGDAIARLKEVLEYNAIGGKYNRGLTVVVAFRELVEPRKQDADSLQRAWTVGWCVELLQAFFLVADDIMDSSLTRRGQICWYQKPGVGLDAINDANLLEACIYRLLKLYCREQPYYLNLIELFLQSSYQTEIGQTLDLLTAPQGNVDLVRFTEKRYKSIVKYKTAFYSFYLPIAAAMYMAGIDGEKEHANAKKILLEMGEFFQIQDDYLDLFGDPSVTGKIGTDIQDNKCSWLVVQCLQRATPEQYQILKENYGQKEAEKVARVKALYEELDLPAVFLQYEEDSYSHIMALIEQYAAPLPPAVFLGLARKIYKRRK

[3] = tested on: ERK; experiment: Expression and activation (phosphorylation) of ERK in myocardial tissue, SHAM or TAC mice, immunoblot and densitometry; type: in vivo, mouse

SMILES: CCCCCN(C)CCC(O)(P(=O)(O)O)P(=O)(O)O [Ibandronate]
HAP mineral binding (retention time in mins) [1]: ~11 min

SMILES: O=P(O)(O)C(O)(Cc1cnc2ccccn12)P(=O)(O)O [Minodronate]
HAP mineral binding (retention time in mins) [1]: 10.33 min

IC50 [2]: 2.5 nM
HAP mineral binding (retention time in mins) [1]: 6.17 min
SMILES: O=P(O)(O)C(F)(Cc1cnc2ccccn12)P(=O)(O)O [Ox-14, 1-fluoro-2-(imidazo-[1,2-a]pyridine-3-yl)-ethyl-bisphosphonic acid]
level of expression of ERK ([3]; SHAM animals, FIG. 1, myocardial lysate, subcutaneous dosing): did not change
phosphorylation of ERK ([3]; SHAM animals, FIG. 1 and FIG. 2, myocardial lysate): not as evident
pERK/tERK ratio, fold increase ([3]; SHAM group, with respect to saline treated SHAM animals, FIG. 3): ~3 fold
level of phosphorylation of ERK ([3]; TAC conditioned animals, FIG. 2): substantial increase
pERK/tERK ratio, fold increase ([3]; TAC group relative to saline SHAM group, FIG. 3): ~5 fold
pERK/tERK activity relative to zoledronic acid administered TAC group ([3]; TAC group, FIG. 3): about double

HAP mineral binding (retention time in mins) [1]: 9.97 min
SMILES: O=P(O)(O)C(O)(Cc1cccnc1)P(=O)(O)O [Risedronate]
